Measurements taken from patent publication US6187906A, “Methods to improve neural outcome” (Aukland Uniservices Limited, priority 1998, dated 2001).

Tested on: substantia nigra neurons
Test: Medial forebrain bundle transection, TH immunopositive cell survival (Experiment 7)
Format: in vivo, Wistar rats
Conditions: lesioned side; daily supranigral GPE 0.3 μg for two weeks
Procedure: Adult male Wistar rats (200-220 g) were anaesthetized with 75 mg/kg Nembutal and positioned in a stereotaxic apparatus. Unilateral transection of the medial forebrain bundle which contains the ascending nigral dopaminergic projection fibers was made 1.3 mm rostral to the rostral tip of the substantia nigra using a retractable wire knife (David Kopf Instruments, Tujunga, Calif.). The knife was lowered into the brain using the following coordinates from the atlas of Paxinos and Watson (1996), Sydney: Academic Press: 3.3 mm posterior to Bregma, 2.4 mm lateral from midline, and 8.5 mm ventral from skull, the blade was extended 2.0 mm toward midline, raised 2.5 mm dorsally, retracted and extended again, and then returned 2.5 mm ventrally. The wire blade was retracted and the knife withdrawn. Next, a 22-gauge metal guide cannula was permanently fixed into place supranigrally at 5.0 mm posterior to Bregma, 2.0 mm lateral to midline, and 6.8 mm ventral to skull. A second set of intact unlesioned rats were cannulated supranigrally at the same coordinates. […]
Immunopositive cells were counted in the central substantia nigra. […] To reveal percent survival, percent changes were calculated by dividing the ipsilateral value by contralateral value.

## NCC(=O)N1CCC[C@H]1C(=O)N[C@@H](CCC(=O)O)C(=O)O [GPE, gly-pro-glu]
  percent cell survival of TH immunopositive neurons: increased
